Experimental data from US10676429B2, “Sulfamoyl-arylamides and the use thereof as medicaments for the treatment of hepatitis B” (priority 2012, dated 2020).

Legend:
[1] = system: HBV; experiment: Anti-HBV activity in HepG2.117 cell line (Tet-off, intracellular HBV DNA, realtime PCR); assay type: cell-based; conditions: Hepatitis B virus, HepG2.117, 72 h
[2] = system: HBV; experiment: Anti-HBV activity in stable transfected HepG2.2.15 cell line (HBV DNA from secreted virions, realtime PCR); assay type: cell-based; conditions: Hepatitis B virus, HepG2.2.15, 144 h
[3] = Cytotoxicity in HepG2 cells, 4 days, Resazurin assay; conditions: human
[4] = HepG2.117 cells, 3 days of treatment, intracellular HBV DNA, read-out: HepG2 117 EC50
[5] = HepG2.2.15 cells, 6 days of treatment, secreted virion HBV DNA, read-out: HepG2 2.15 EC50

Row | SMILES | EC50 [1, 4] | EC50 [2, 5] | CC50 at 4 days ([3]; HepG2 cells) | EC50 ([1]; read-out: HepG2 117 EC50 (μM)) | EC50 ([2]; read-out: HepG2 2.15 EC50 (μM)) | CC50 at 4 days [3]
1 | O=C(Nc1cc(F)cc(F)c1)c1cccc(S(=O)(=O)NC2CCCC2)c1 [Compound 15] | 0.78 µM | 0.28 µM | 10.1 µM | – | – | –
2 | Cc1cc(NC(=O)c2cccc(S(=O)(=O)NC3CCCC3)c2)ccc1C#N [Compound 16] | 2.8 µM | 1.21 µM | 10.3 µM | – | – | –
3 | Cc1cccc(NC(=O)c2cc(S(=O)(=O)N3CCCCC3)c(Cl)cc2Cl)c1 [Compound 17] | 2.65 µM | 0.56 µM | > 100 µM | – | – | –
4 | O=C(Nc1ccc(F)cc1)c1cccc(S(=O)(=O)N2CCCC2)c1 [Compound 36] | 3.03 µM | 4.53 µM | 97 µM | – | – | –
5 | CN(C(=O)C1CCCCC1)S(=O)(=O)c1cccc(C(=O)Nc2ccc(F)cc2)c1 [Compound 48] | 1.88 µM | 2.92 µM | 97.2 µM | – | – | –
6 | CN(C)S(=O)(=O)c1ccc(F)c(C(=O)Nc2ccccc2)c1 [Compound 49] | 9.15 µM | 13.4 µM | > 100 µM | – | – | –
7 | O=C(Nc1ccc(C(F)(F)F)cc1)c1cc(S(=O)(=O)NC2CCCC2)ccc1F [Compound 50] | 15.8 µM | 45.9 µM | 11.3 µM | – | – | –
8 | O=C(Nc1ccc(Cl)cc1)c1cc(S(=O)(=O)NC2CCCC2)ccc1F [Compound 51] | 9.44 µM | 3.98 µM | 20.8 µM | – | – | –
9 | O=C(Nc1ccc(F)cc1)c1cc(S(=O)(=O)N2CCC3(CC2)OCCO3)ccc1F [Compound 52] | 2.44 µM | 1.94 µM | > 50 µM | – | – | –
10 | O=C(Nc1ccc(F)cc1)c1cc(S(=O)(=O)NC2CCCC2)ccc1F [Compound 53] | 0.44 µM | 0.36 µM | > 50 µM | – | – | –
11 | O=C(Nc1ccc(F)cc1)c1cc(S(=O)(=O)N2CCCCC2)ccc1Cl [Compound 54] | 1.55 µM | 1.63 µM | > 50 µM | – | – | –
12 | O=C(Nc1ccccc1)c1cccc(S(=O)(=O)NC2CC2)c1 [Compound 55] | 3.26 µM | 3.06 µM | > 100 µM | – | – | –
13 | O=C(Nc1ccc(F)cc1)c1cccc(S(=O)(=O)NC(=O)C2CCCCC2)c1 [Compound 56] | 5.45 µM | 1.64 µM | > 100 µM | – | – | –
14 | O=C(Nc1ccc(F)cc1)c1ccc(S(=O)(=O)N2CCCCC2)o1 [Compound 57] | 12.7 µM | 15.5 µM | 52.1 µM | – | – | –
15 | O=C(Nc1ccccc1)c1ccc(S(=O)(=O)N2CCCCC2)o1 [Compound 58] | 19.9 µM | 14.6 µM | 62.5 µM | – | – | –
16 | O=C(Nc1ccccc1)c1cc(S(=O)(=O)N2CCCCC2)cs1 [Compound 59] | 19.3 µM | 12.8 µM | 46.7 µM | – | – | –
17 | O=C(Nc1ccccc1)c1cc(S(=O)(=O)NC2CCCCC2)cs1 [Compound 60] | 0.67 µM | 0.85 µM | 29.1 µM | – | – | –
18 | O=C(Nc1ccc(F)cc1)c1cc(S(=O)(=O)N2CCCCC2)cs1 [Compound 61] | – | – | – | 15.4 µM | 7.07 µM | 35.7 µM
19 | Cc1[nH]c(C(=O)Nc2ccccc2)c(C)c1S(=O)(=O)N1CCCCC1 [Compound 62] | 10.1 µM | 7.06 µM | > 50 µM | – | – | –

Row | SMILES | EC50 [1, 4] | EC50 [2, 5] | CC50 at 4 days ([3]; HepG2 cells) | EC50 ([1]; read-out: HepG2 117 EC50 (μM)) | EC50 ([2]; read-out: HepG2 2.15 EC50 (μM)) | CC50 at 4 days [3]
20 | O=C(Nc1ccccc1)c1c[nH]c(S(=O)(=O)NC2CCCCC2)n1 [Compound 63] | 21.1 µM | 9.94 µM | > 100 µM | – | – | –
21 | O=C(Nc1ccccc1)c1cccc(S(=O)(=O)NC2CCCCC2)n1 [Compound 65] | > 25 µM | 10.8 µM | 35.3 µM | – | – | –
22 | O=C(Nc1ccccc1)c1ccnc(S(=O)(=O)NC2CCCCC2)c1 [Compound 66] | 14.5 µM | 4.27 µM | > 100 µM | – | – | –
23 | O=C(Nc1ccccc1)c1cc(S(=O)(=O)NC2CCCCC2)ccn1 [Compound 67] | 18.6 µM | 11.1 µM | > 100 µM | – | – | –
24 | O=C(Nc1ccccc1)c1cncc(S(=O)(=O)NC2CCCCC2)c1 [Compound 68] | > 25 µM | 18.6 µM | 68 µM | – | – | –
25 | O=C(Nc1ccc(F)cc1)c1cccc(S(=O)(=O)N2CCCCC2=O)c1 [Compound 69] | 10.4 µM | 3.9 µM | > 25 µM | – | – | –
26 | CC[C@@H](C)NS(=O)(=O)c1cccc(C(=O)Nc2ccc(F)cc2)c1 [Compound 70] | 0.89 µM | 0.34 µM | > 25 µM | – | – | –
27 | CC[C@H](C)NS(=O)(=O)c1cccc(C(=O)Nc2ccc(F)cc2)c1 [Compound 71] | 8.63 µM | 0.75 µM | > 25 µM | – | – | –
28 | Cc1cc(NC(=O)c2cccc(S(=O)(=O)N[C@H]3CCOC3)c2)ccc1F [Compound 72] | 0.37 µM | 0.12 µM | > 25 µM | – | – | –
29 | Cc1cc(NC(=O)c2cccc(S(=O)(=O)NC(C)C)c2)ccc1F [Compound 73] | 0.15 µM | 0.073 µM | > 25 µM | – | – | –
30 | CC(C)NS(=O)(=O)c1cccc(C(=O)Nc2ccc(F)c(C(F)(F)F)c2)c1 [Compound 74] | 0.53 µM | 0.64 µM | > 25 µM | – | – | –
31 | N#Cc1cccc(NC(=O)c2cccc(S(=O)(=O)NC3CCCC3)c2)c1 [Compound 75] | 0.82 µM | 0.39 µM | > 25 µM | – | – | –
32 | CC1(NS(=O)(=O)c2cccc(C(=O)Nc3ccc(F)cc3)c2)CCCC1 [Compound 76] | 2.5 µM | 0.72 µM | > 25 µM | – | – | –
33 | O=C(Nc1ccc(F)cc1)c1cc(S(=O)(=O)NC2CCCC2)c(Cl)cc1Cl [Compound 78] | 0.65 µM | 0.9 µM | > 25 µM | – | – | –
34 | CCC(C)(C)NS(=O)(=O)c1cccc(C(=O)Nc2ccc(F)cc2)c1 [Compound 79] | 1.69 µM | 0.96 µM | > 25 µM | – | – | –
35 | N#Cc1ccc(NC(=O)c2cccc(S(=O)(=O)NC3CCCC3)c2)cc1 [Compound 80] | 17.9 µM | 8.4 µM | > 25 µM | – | – | –
36 | O=C(Nc1cccc(C(F)(F)F)c1)c1cccc(S(=O)(=O)NC2CCCC2)c1 [Compound 81] | 0.81 µM | 0.24 µM | 15.3 µM | – | – | –
37 | Cc1cc(C#N)cc(NC(=O)c2cccc(S(=O)(=O)NC3CCCC3)c2)c1 [Compound 82] | 3.13 µM | 1.2 µM | > 25 µM | – | – | –
38 | CC(C)NS(=O)(=O)c1cccc(C(=O)Nc2ccc(F)c(C3CC3)c2)c1 [Compound 84] | 0.91 µM | 0.32 µM | > 25 µM | – | – | –

Row | SMILES | EC50 [1, 4] | EC50 [2, 5] | CC50 at 4 days ([3]; HepG2 cells) | EC50 ([1]; read-out: HepG2 117 EC50 (μM)) | EC50 ([2]; read-out: HepG2 2.15 EC50 (μM)) | CC50 at 4 days [3]
39 | CCC1(NS(=O)(=O)c2cccc(C(=O)Nc3ccc(F)c(C)c3)c2)CC1 [Compound 85] | 0.38 µM | 0.05 µM | > 25 µM | – | – | –
40 | CCC(C)(C)NS(=O)(=O)c1cccc(C(=O)Nc2ccc(F)c(C)c2)c1 [Compound 86] | 0.11 µM | 0.14 µM | > 25 µM | – | – | –
41 | CCC1(NS(=O)(=O)c2cccc(C(=O)Nc3ccc(F)cc3)c2)CC1 [Compound 87] | 0.89 µM | 0.41 µM | > 25 µM | – | – | –
42 | CC(C)NS(=O)(=O)c1cccc(C(=O)Nc2ccc(F)c(F)c2)c1 [Compound 88] | 0.4 µM | 0.21 µM | > 25 µM | – | – | –
43 | CCC1(NS(=O)(=O)c2cccc(C(=O)Nc3ccc(F)cc3)c2)COC1 [Compound 89] | 0.72 µM | 0.54 µM | > 25 µM | – | – | –
44 | O=C(Nc1ccc(F)c(F)c1)c1cccc(S(=O)(=O)N[C@H]2CCOC2)c1 [Compound 90] | 0.51 µM | 0.38 µM | > 25 µM | – | – | –
45 | C#Cc1cc(NC(=O)c2cccc(S(=O)(=O)NC(C)C)c2)ccc1F [Compound 91] | 0.77 µM | 0.53 µM | > 25 µM | – | – | –
46 | CCc1cc(NC(=O)c2cccc(S(=O)(=O)NC(C)C)c2)ccc1F [Compound 92] | 2.59 µM | 0.31 µM | > 25 µM | – | – | –
47 | CCC1(NS(=O)(=O)c2cccc(C(=O)Nc3ccc(F)c(C)c3)c2)COC1 [Compound 93] | 0.22 µM | 0.07 µM | > 25 µM | – | – | –
48 | Cc1cc(NC(=O)c2cccc(S(=O)(=O)NC3(C)CC3)c2)ccc1F [Compound 94] | 0.23 µM | 0.15 µM | > 25 µM | – | – | –
49 | CC(C)NS(=O)(=O)c1cccc(C(=O)Nc2ccc(F)c(C(C)C)c2)c1 [Compound 95] | 2.79 µM | 1.4 µM | > 25 µM | – | – | –
50 | CC(C)NS(=O)(=O)c1cccc(C(=O)Nc2ccc(F)c(C(F)F)c2)c1 [Compound 96] | 0.29 µM | 0.1 µM | > 25 µM | – | – | –
51 | Cc1cc(NC(=O)c2cccc(S(=O)(=O)NC3(C)COC3)c2)ccc1F [Compound 97] | 0.37 µM | 0.12 µM | > 25 µM | – | – | –
52 | CC[C@@H](C)NS(=O)(=O)c1cccc(C(=O)Nc2ccc(F)c(C)c2)c1 [Compound 98] | 0.31 µM | 0.1 µM | > 25 µM | – | – | –
53 | Cc1cc(NC(=O)c2cccc(S(=O)(=O)NC(C)C)c2)cc(F)c1F [Compound 99] | 0.46 µM | 0.09 µM | > 25 µM | – | – | –
54 | CC[C@@H](C)NS(=O)(=O)c1ccc(F)c(C(=O)Nc2ccc(F)c(F)c2)c1 [Compound 100] | 0.43 µM | 0.13 µM | > 25 µM | – | – | –
55 | O=C(Nc1ccc(F)c(F)c1)c1cc(S(=O)(=O)N[C@H]2CCOC2)ccc1F [Compound 101] | 1.51 µM | 0.43 µM | > 25 µM | – | – | –
56 | O=C(Nc1ccc(F)c(C(F)F)c1)c1cccc(S(=O)(=O)N[C@H]2CCOC2)c1 [Compound 102] | 0.33 µM | 0.18 µM | > 25 µM | – | – | –
57 | N#Cc1cc(NC(=O)c2cccc(S(=O)(=O)N[C@H]3CCOC3)c2)ccc1F [Compound 105] | 0.98 µM | 0.81 µM | > 25 µM | – | – | –
